Measured values from patent US4636500A, “N-(phenoxyalkyl)imidazoles as selective inhibitors of the thromboxane synthetase enzyme and pharmaceutical compositions thereof” (Pfizer Inc., priority 1978, dated 1987).
Counter-ions that a name gives are not always drawn.

Key:
prostacyclin synthetase [1] = target: T1, prostacyclin synthetase (Sus scrofa, UniProt A0A5G2QT35); details: pig aorta microsomes; pre-incubation of the enzyme; literature; cited from earlier work
T1 construct: Pig aorta microsomes; from tissue; host or cells: pig aorta microsomes
T1 sequence (A0A5G2QT35 1-497): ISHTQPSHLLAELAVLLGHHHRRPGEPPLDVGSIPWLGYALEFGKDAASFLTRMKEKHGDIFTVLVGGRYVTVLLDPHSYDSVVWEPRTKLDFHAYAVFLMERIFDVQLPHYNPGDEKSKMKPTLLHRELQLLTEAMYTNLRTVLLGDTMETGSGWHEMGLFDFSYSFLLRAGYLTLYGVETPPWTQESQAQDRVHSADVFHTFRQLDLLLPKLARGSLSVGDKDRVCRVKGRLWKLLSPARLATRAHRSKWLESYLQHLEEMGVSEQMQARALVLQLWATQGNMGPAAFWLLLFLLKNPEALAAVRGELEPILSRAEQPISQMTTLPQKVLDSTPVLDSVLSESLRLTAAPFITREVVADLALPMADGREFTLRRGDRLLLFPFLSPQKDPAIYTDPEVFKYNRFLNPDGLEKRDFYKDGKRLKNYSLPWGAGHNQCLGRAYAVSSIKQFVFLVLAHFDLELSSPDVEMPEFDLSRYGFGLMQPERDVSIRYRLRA

thromboxane synthetase = target: T2, thromboxane synthetase (Homo sapiens, UniProt P24557); assay: Thromboxane A2 (TxA2) synthetase inhibition; Indomethacin pretreated human platelet microsomes, rabbit aorta superfusion bioassay; format: biochemical; details: for IC50: human platelet microsomes, 5 min pre-incubation, read-out: Molar concentration causing 50% inhibition of (1) thromboxane synthetase; for Ratio of (3) to (1): prostacyclin synthetase / thromboxane synthetase 50% inhibition concentrations
T2 construct: human platelet microsomes; from tissue; host or cells: human blood platelets (indomethacin-pretreated), microsomes
T2 sequence (P24557 1-533): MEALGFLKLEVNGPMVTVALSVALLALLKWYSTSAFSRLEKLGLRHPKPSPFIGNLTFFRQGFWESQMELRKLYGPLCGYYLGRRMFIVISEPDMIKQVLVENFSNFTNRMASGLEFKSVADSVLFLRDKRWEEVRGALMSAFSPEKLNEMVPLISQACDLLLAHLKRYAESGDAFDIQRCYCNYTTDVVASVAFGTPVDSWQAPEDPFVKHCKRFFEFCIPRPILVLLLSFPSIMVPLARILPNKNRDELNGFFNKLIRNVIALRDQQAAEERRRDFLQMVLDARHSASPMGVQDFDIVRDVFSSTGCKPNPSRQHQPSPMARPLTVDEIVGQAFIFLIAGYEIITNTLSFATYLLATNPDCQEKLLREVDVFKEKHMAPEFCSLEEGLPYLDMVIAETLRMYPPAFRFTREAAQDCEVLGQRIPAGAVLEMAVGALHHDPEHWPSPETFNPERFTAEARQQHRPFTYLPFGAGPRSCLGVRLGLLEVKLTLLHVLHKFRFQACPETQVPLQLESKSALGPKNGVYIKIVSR
Method: Indomethacin pretreated human platelet microsomes (Science 1976, 193, 163) are incubated (2 min.: 0° C.) with PGH2 (produced as in 1) and aliquots of the reaction mixture superfused over two rabbit aorta spirals which are separated by a delay coil (2 min.). The latter is required to allow the selective decay of the more unstable thromboxane A2 (Proc. Nat. Acad. Sci. 1975, 72, 2994) thereby enabling the separate measurement of increased isometric tension due to the TxA2 formed and the PGH2 remaining. The test compound is pre-incubated with the enzyme for 5 minutes, and its ability to inhibit the thromboxane synthetase enzyme is measured as its reduction of the TxA2 component of the isometric tension.

prostacyclin synthetase [2] = target: T1, prostacyclin synthetase; assay: Prostacyclin (PGI2) synthetase inhibition; pig aorta microsomes, rabbit aorta strip bioassay; format: biochemical; details: 5 min pre-incubation, read-out: Molar concentration causing 50% inhibition of (3) prostacyclin synthetase
Method: The effect of the compounds of the formula (I) on the thromboxane synthetase enzyme, and the prostacyclin synthetase and cyclo-oxygenase enzymes has been measured by the following in vitro enzyme assays:
Pig aorta microsomes (Nature, 1976, 263, 663) are incubated (30 sec.; 22° C.) with PGH2 produced as in 1) and aliquots bio-assayed as in 1. […] The test compound is then pre-incubated with the enzyme for 5 minutes, and its ability to prevent the decrease in tension is measured.
The results of these tests are shown in the following Table, which gives the molar concentration of each compound which caused a 50% change in the effect of the relevant enzyme on isometric tension, i.e. caused a 50% inhibition of the action of that enzyme.

cyclo-oxygenase = target: T3, cyclo-oxygenase (Ovis aries, UniProt P05979); assay: Cyclo-oxygenase inhibition; ram seminal vesicle microsomes, rabbit aorta strip bioassay; format: biochemical; details: 5 min pre-incubation, read-out: Molar concentration causing 50% inhibition of (2) cyclo-oxygenase
T3 construct: Ram seminal vesicle microsomes; from tissue; host or cells: ram seminal vesicle microsomes
T3 sequence (P05979 25-600): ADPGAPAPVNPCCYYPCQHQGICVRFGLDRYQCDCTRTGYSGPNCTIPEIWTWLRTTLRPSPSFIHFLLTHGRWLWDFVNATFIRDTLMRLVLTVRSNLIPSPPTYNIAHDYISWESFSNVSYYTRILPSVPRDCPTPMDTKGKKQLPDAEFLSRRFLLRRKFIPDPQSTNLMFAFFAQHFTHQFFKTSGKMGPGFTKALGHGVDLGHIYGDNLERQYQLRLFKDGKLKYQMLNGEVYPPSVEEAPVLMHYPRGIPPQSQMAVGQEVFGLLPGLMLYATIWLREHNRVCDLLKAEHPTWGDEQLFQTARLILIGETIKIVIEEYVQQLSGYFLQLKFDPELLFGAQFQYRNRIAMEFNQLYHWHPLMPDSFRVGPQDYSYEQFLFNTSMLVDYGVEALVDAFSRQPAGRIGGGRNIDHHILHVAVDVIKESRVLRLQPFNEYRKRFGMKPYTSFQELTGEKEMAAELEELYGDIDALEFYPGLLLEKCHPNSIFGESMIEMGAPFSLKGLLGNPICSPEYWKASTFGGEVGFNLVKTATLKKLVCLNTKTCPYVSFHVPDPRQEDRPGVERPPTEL
Method: Ram seminal vesicle microsomes(Biochemistry, 1971, 10, 2372) are incubated with arachidonic acid (100 μM: 1 min.: 22°) to produce PGH2 and aliquots of the reaction mixture injected into a stream of Krebs-bicarbonate at 37° C. (containing a mixture of antagonists (Nature, […], 218, 1135) and indomethacin (Brit. J. Pharmacol., 1972, 45, 451) which is superfusing a spirally-cut rabbit aorta strip (Nature, 1969, 223, 29). The ability of a compound to inhibit the enzyme is measured by comparing the increases in isometric tension produced by PGH2 in the absence of the test compound, and following pre-incubation of the enzyme with the test compound for 5 minutes.

[3] = test system: human blood platelet aggregation; assay: in vitro inhibition of human blood platelet aggregation; format: cell-based; details: human platelets, qualitative
Description: In addition to the above as in vitro assay for measuring the inhibition of human blood platelet aggregation has been described and this may be predictive of anti-thrombotic efficacy clinically (Lancet (ii), 1974, 1223; J. Exp. Med., 1967, 126, 171).

rabbits = details: intravenous arachidonic acid, literature; cited from earlier work
cyclo-oxygenase enzyme = details: background statement; cited from earlier work
[4] = test system: human blood platelet aggregation; details: human blood platelets; literature; cited from earlier work
aggregation of platelets = details: rat abdominal aorta, in vivo; literature; cited from earlier work

| IC50 (thromboxane synthetase) | Ratio of (3) to (1) (thromboxane synthetase) | IC50 (prostacyclin synthetase [2]) | SMILES | also measured |
| --- | --- | --- | --- | --- |
| – | – | – | CCCCCC(/C=C/C=C\C/C=C\C/C=C\CCCC(=O)O)OO (stereo not shown) [15-hydroperoxy-arachidonic acid] | prevention of the decrease in PGH2-induced tension (PGI2 synthetase inhibition) (prostacyclin synthetase [1]): prevented completely |
| 22 nM | > 4,500 | > 100000 nM | NC(=O)c1ccc(OCCn2ccnc2)cc1 [Example 1, 1-[2-(4-Carbamoylphenoxy)ethyl]imidazole] | IC50 (cyclo-oxygenase): > 100000 nM |
| 10000 nM | – | – | NC(=O)c1ccccc1OCCn1ccnc1 [Example 2] | – |
| 1000 nM | – | – | NC(=O)Cc1ccc(OCCn2ccnc2)cc1 [Example 3] | – |
| 40 nM | > 2,500 | > 100000 nM | CCOC(=O)c1ccccc1OCCn1ccnc1 [Example 4, 1-[2-(2-ethoxycarbonyl-phenoxy)ethyl]imidazole] | – |
| 46 nM | 2,200 | 100000 nM | CCOC(=O)Cc1cccc(OCCn2ccnc2)c1 [Example 7] | – |
| 34 nM | > 2,900 | > 100000 nM | CCOC(=O)Cc1ccc(OCCn2ccnc2)cc1 [Example 8] | – |
| 34000 nM | – | – | O=C(O)c1ccccc1OCCn1ccnc1 [Example 17, 1-[2-(2-Carboxyphenoxy)ethyl]imidazole Hydrochloride] | – |
| 4.2 nM | – | – | O=C(O)COc1ccc(OCCn2ccnc2)cc1 [Example 18, 4-[2-(1-Imidazolyl)ethoxy]phenoxyacetic acid Hydrochloride] | – |
| 580 nM | – | – | O=C(O)Cc1ccccc1OCCn1ccnc1 [Example 19, 2-[2-(1-Imidazolyl)ethoxy]phenylacetic acid Hydrochloride] | – |
| 12 nM | – | – | O=C(O)c1cccc(OCCn2ccnc2)c1 [Example 21, 1-[2-(3-Carboxyphenoxy)ethyl]imidazole Hydrochloride] | – |
| 4.9 nM | – | – | c1cn(CCOc2ccc(-c3nnn[nH]3)cc2)cn1 [Example 22, 1-[2-(4-Tetrazol-5-ylphenoxy)ethyl]imidazole] | – |
| 16 nM | – | – | NC(=O)COc1ccc(OCCn2ccnc2)cc1 [Example 23, 4-[2-(1-Imidazolyl)ethoxy]phenoxyacetamide] | – |
| 5 nM | > 20,000 | > 100000 nM | CNC(=O)c1ccc(OCCn2ccnc2)cc1 [Example 24, 1-[2-(4-N-Methylcarbamoylphenoxy)ethyl]imidazole] | IC50 (cyclo-oxygenase): > 100000 nM |
| 5.6 nM | > 18,000 | > 100000 nM | CN(C)C(=O)c1ccc(OCCn2ccnc2)cc1 [Example 25, 1-[2-(4-N,N-Dimethylcarbamoylphenoxy)ethyl]imidazole] | IC50 (cyclo-oxygenase): > 100000 nM |
| 10000 nM | – | – | O=C(c1ccc(OCCn2ccnc2)cc1)N1CCOCC1 [Example 26, 1-[4-(2-Imidazol-1-yl)ethoxybenzoyl]morpholine] | – |
| 6600 nM | – | – | NC(=O)Cc1ccccc1OCCn1ccnc1 [Example 39, 1-[2-(2-Carbamoylmethylphenoxy)ethyl]imidazole] | – |
| – | – | – | CC(=O)Oc1ccccc1C(=O)O [aspirin] | protect the rabbit from the lethal effect of the injection (rabbits): protect the rabbit from the lethal effect of the injection; inhibition of the cyclo-oxygenase enzyme (cyclo-oxygenase enzyme): inhibit the cyclo-oxygenase enzyme; inhibitory activity in vitro against a variety of aggregating agents [4]: show inhibitory activity in vitro against a variety of aggregating agents |
| – | – | – | O=C1C(CC[S+]([O-])c2ccccc2)C(=O)N(c2ccccc2)N1c1ccccc1 (stereo not shown) [sulphinpyrazone] | protect the rabbit from the lethal effect of the injection (rabbits): protect the rabbit from the lethal effect of the injection; inhibitory activity in vitro against a variety of aggregating agents [4]: show inhibitory activity in vitro against a variety of aggregating agents; prevent the aggregation of platelets in an extra corporeal loop (aggregation of platelets): prevent the aggregation of platelets in an extra corporeal loop of the abdominal aorta of rats in vivo |

| SMILES | IC50 (thromboxane synthetase) | Ratio of (3) to (1) (thromboxane synthetase) | IC50 (prostacyclin synthetase [2]) | also measured |
| --- | --- | --- | --- | --- |
| O=C(O)c1ccc(OCCn2ccnc2)cc1 [Example 16, 1-[2-(4-Carboxyphenoxy)ethyl]imidazole] | – | – | > 100000 nM | preventing human blood platelet aggregation [3]: effective in preventing human blood platelet aggregation |
